Results published in ChEMBL document CHEMBL1133326, “Alpha-ketoamides, alpha-ketoesters and alpha-diketones as HCV NS3 protease inhibitors” (Bioorg Med Chem Lett, 2000).
*1 amine or outer side, *2 acyl side, *3 side chain or, on linkers, in order; H or OH if unused. Where a SMILES comes first, the peptide text is derived from it. [ ]: non-standard residue; d: D form. The star is where a group is joined. Abu(ψCOCO) = CC[C@H](N[*:1])C(=O)C(=O)[*:2]; Boc = CC(C)(C)OC(=O)*; OtBu = CC(C)(C)O*; NHAllyl = C=CCN*

Target: NS3 (Hepatitis C virus, UniProt A3EZJ3)
Sequence (A3EZJ3 whole entry): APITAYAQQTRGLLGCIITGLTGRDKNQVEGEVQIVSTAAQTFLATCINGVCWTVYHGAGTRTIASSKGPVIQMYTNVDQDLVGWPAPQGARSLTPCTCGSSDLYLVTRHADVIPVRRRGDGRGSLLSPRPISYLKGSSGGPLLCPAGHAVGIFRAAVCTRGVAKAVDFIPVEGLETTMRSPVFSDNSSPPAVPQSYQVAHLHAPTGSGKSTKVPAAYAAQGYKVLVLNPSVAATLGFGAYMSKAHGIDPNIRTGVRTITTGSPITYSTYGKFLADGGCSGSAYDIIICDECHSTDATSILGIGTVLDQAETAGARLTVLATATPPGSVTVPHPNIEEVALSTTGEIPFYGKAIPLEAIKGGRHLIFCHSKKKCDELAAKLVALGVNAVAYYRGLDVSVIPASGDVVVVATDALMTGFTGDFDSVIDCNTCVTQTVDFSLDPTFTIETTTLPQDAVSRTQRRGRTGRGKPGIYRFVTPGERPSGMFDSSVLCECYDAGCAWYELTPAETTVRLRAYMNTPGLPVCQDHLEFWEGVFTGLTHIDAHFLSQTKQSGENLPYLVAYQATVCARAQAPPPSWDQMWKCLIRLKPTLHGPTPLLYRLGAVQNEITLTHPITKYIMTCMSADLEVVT
Experiment: Inhibition against hepatitis C virus protease NS3 activity
Set-up: species or system Hepacivirus hominis

Compound | IC50 [µM]
C=CCNC(=O)C(=O)[C@H](CC)NC(=O)[C@@H]1CCCN1C(=O)[C@@H](NC(=O)[C@@H](NC(=O)[C@H](CCC(=O)O)NC(=O)[C@@H](N)CC(=O)O)C(C)C)C(C)C (H-DEVVP[Abu(ψCOCO)]-NHAllyl) | 0.42
C=CCC(NC(=O)[C@H]1CCCN1C(=O)[C@@H](NC(=O)[C@@H](NC(=O)[C@H](CCC(=O)OC(C)(C)C)NC(=O)[C@H](CC(=O)OC(C)(C)C)NC(=O)OC(C)(C)C)C(C)C)C(C)C)C(=O)C(=O)OC (stereo partly specified) | > 30
C=CCNC(=O)C(=O)[C@H](CC)NC(=O)[C@@H]1CCCN1C(=O)[C@@H](NC(=O)[C@@H](NC(=O)[C@H](CCC(=O)OC(C)(C)C)NC(=O)[C@H](CC(=O)OC(C)(C)C)NC(=O)OC(C)(C)C)C(C)C)C(C)C (Boc-D(OtBu)E(OtBu)VVP[Abu(ψCOCO)]-NHAllyl) | 0.84
C=CCC(NC(=O)[C@H]1CCCN1C(=O)[C@@H](NC(=O)[C@@H](NC(=O)[C@H](CCC(=O)O)NC(=O)[C@@H](N)CC(=O)O)C(C)C)C(C)C)C(=O)C(=O)CC(C)C (stereo partly specified) | 4.8
C=CCC(NC(=O)[C@H]1CCCN1C(=O)[C@@H](NC(=O)[C@@H](NC(=O)[C@H](CCC(=O)O)NC(=O)[C@@H](N)CC(=O)O)C(C)C)C(C)C)C(=O)C(=O)C1CC=CCC1 (stereo partly specified) | 4.23
C=CCC(NC(=O)[C@H]1CCCN1C(=O)[C@@H](NC(=O)[C@@H](NC(=O)[C@H](CCC(=O)O)NC(=O)[C@@H](N)CC(=O)O)C(C)C)C(C)C)C(=O)C(=O)NCC (stereo partly specified) | 0.35
C=CCC(NC(=O)[C@H]1CCCN1C(=O)[C@@H](NC(=O)[C@@H](NC(=O)[C@H](CCC(=O)OC(C)(C)C)NC(=O)[C@H](CC(=O)OC(C)(C)C)NC(=O)OC(C)(C)C)C(C)C)C(C)C)C(=O)C(=O)CC(C)C (stereo partly specified) | > 30
C=CCC(NC(=O)[C@H]1CCCN1C(=O)[C@@H](NC(=O)[C@@H](NC(=O)[C@H](CCC(=O)O)NC(=O)[C@@H](N)CC(=O)O)C(C)C)C(C)C)C(=O)C(=O)OC (stereo partly specified) | 4.34
Ac-DEVVPC-OH | 2.5
C=CCNC(=O)C(=O)C(CC=C)NC(=O)[C@H]1CCCN1C(=O)[C@@H](NC(=O)[C@@H](NC(=O)[C@H](CCC(=O)O)NC(=O)[C@@H](N)CC(=O)O)C(C)C)C(C)C (stereo partly specified) | 0.34
C=CCNC(=O)C(=O)C(CC=C)NC(=O)[C@H]1CCCN1C(=O)[C@@H](NC(=O)[C@@H](NC(=O)[C@H](CCC(=O)OC(C)(C)C)NC(=O)[C@H](CC(=O)OC(C)(C)C)NC(=O)OC(C)(C)C)C(C)C)C(C)C (stereo partly specified) | 0.57
